Source: patent publication US20260125356A1, “TREATMENT OF LEISHMANIASIS” (THE UNIVERSITY OF DURHAM, priority 2022, published 2026)
Converted amounts (≈) assume the structure as drawn. Where two headings read alike, the source gives them in different places.

What was measured:
L. amazonensis-GFP = experiment: In vivo intralesional treatment of L. amazonensis-GFP (mouse ear); details: 0.4 mg in 10 μL PBS, once a week for five weeks
Experimental: FIG. 12 evaluation of the parasitic load of intralesional treatment of L. amazonensis-GFP (mouse ear) after treatment with PBS, glucantime, compound 53 (VJL), clemastine fumarate (CF) or clemastine fumarate in a polymeric nanoparticle (NP-CF);
Mice were infected with L. amazonensis and were then treated intralesionally (IL) with five doses of 10 μL PBS only (control) or 10 μL of PBS containing 0.4 mg of glucantime, compound 53 (VJL), clemastine fumarate (CF) or clemastine fumarate in a polymeric nanoparticle (NP-CF). The mice were treated once a week for five weeks.

[1] = test system: L. donovani promastigotes; experiment: L. donovani promastigote dose response assay (resazurin); type: cell-based; details: Leishmania donovani, read-out: EC50 (L. don)/μM
ΔrfaC mutant E. coli = experiment: Antibacterial MIC/growth assay, ΔrfaC mutant E. coli; type: cell-based; details: 7.8 to 500 μM, 16 hours at 37° C.
Experimental: (§1) DMSO was used as a solvent control at a maximum final concentration of 10% (a greater percentage than would be achieved using the compounds at the concentrations in question). Plates were incubated at 37° C. with shaking for 16 hours before measuring absorbance at 600 nm. These values were then used to calculate percentage growth at each dilution of compound in comparison to growth in the absence of compound. The following day, the contents of each well were resuspended using a multichannel pipette, and 5 μl from each well was then applied to LB agar plates. These were incubated at 30° C. in a stationary incubator for 16 hours before imaging.

S. aureus (FDA209P) = experiment: Antibacterial MIC/growth assay, S. aureus; type: cell-based; details: 16 hours at 37° C., absorbance 600 nm
Experimental: as §1

[2] = test system: wild-type E. coli (BW25113); experiment: Antibacterial MIC/growth assay, wild-type E. coli; type: cell-based; details: 7.8 to 500 μM, 16 hours at 37° C.
Experimental: as §1

T. cruzi epimastigotes = experiment: T. cruzi epimastigote dose response assay; type: cell-based; details: Trypanosoma cruzi, read-out: EC50 (T. cruzi)/μM
[3] = Cytotoxicity against macrophages (resazurin); type: cell-based; details: mouse, bone marrow-derived macrophages (BMDM), read-out: CC50 (macrophage)
Experimental: Mouse bone marrow-derived macrophages (BMDM) were plated in 96 well-plate at 1×10^5/well with medium RPMI+10% HIFCS. After 24 h, compound 53 and Pentostam were added at the indicated concentrations, and cells cultured for further 48 h with medium RPMI+5% HIFCS. […] Pentostam CC50 was from curve regression extrapolation. Means±SD (n=5);
The selectivity index (SI) was calculated by dividing the half maximal cytotoxic concentration (CC50) by the half maximal effective concentration (EC50). CC50 was extrapolated for pentostam.

[4] = test system: L. amazonensis intracellular amastigotes; experiment: Killing of intracellular amastigotes in infected peritoneal macrophages; type: cell-based; details: Leishmania amazonensis, Peritoneal macrophage, treated 48 h, read-out: EC50 (amastigote)
Experimental: Peritoneal macrophages were plated at 2×10^5/well in 24 well-plate onto circular glass coverslips with medium RPMI+10% HIFCS. After 24 h, macrophages were infected with L. amazonensis (1:10) and cultured at 37″C for 4 h and washed to remove non internalized amastigotes. At 24 h post infection, cells were treated with serial dilutions of compound 53 or Pentostam for 48 h at 37° C. in medium RPMI+5% HIFCS. Afterwards, cells were stained with Rapid Panoptic and the number of intracellular amastigotes in 100 macrophages was counted. EC50 values were calculated by non-linear regression. Means±SD (n=2);
The ability of compound 53 to kill intracellular amastigotes for cells infected with L. amazonensis was assessed and the cytotoxicity of the compound was investigated. The results are shown in FIGS. 6 to 8 and Table 8 below.

visceral leishmaniasis = experiment: In vivo efficacy against experimental visceral leishmaniasis; details: single dose 10 mg/kg, BALB/c mice
Description: FIG. 9 evaluation of efficacy against visceral leishmaniasis in BALB/c mice in (A) the liver and (B) the spleen through Leishman donovani units (LDU) (n=4);
FIG. 10 evaluation of efficacy against visceral leishmaniasis in BALB/c mice in bone marrow (n=4);
FIG. 11 evaluation of efficacy against visceral leishmaniasis in BALB/c mice in (A) the liver and (B) the spleen through Limiting Dilution Assay (LDA) (n=4);
Mice were infected with 2×10^7 promastigotes and kept for 2 months. After 2 months mice were treated with a single dose of phosphate-buffered saline (PBS), an empty liposome formulation (E.Lip), 10 mg/kg of body weight of Drug 3R, 10 mg/kg of body weight of compound 53 (identified in the Figures as drug 10), a liposome composition comprising 10 mg/kg of body weight of Drug 3R (Lip Drug 3R) or a liposome composition comprising 10 mg/kg of body weight of compound 53 (Lip Drug 10). […] The mice were then kept for one month and then sacrificed. Infection in liver and spleen was determined through LDU and LDA (FIGS. 9 and 11), infection in bone marrow was determined by counting amastigotes/1000 cells (FIG. 10).
Liposomal compositions were prepared by incorporation of an active compound into the lipid bilayer of SA-bearing choline liposome (lipid ratio, 7:2). […]

Kinetic solubility = details: kinetic from dmso stock
Description: All chemicals and solvents were sourced from commercial suppliers. Buffers were made up using purified water from a MilliQ® water purification system. Biorelevant buffers (FESSIF, FASSIF and FASSGF) were purchased from Biorelevant and made up according to manufacturer's instructions. 15% FBS (heat inactivated, South American origin, ThermoFisher scientific) in PBS (Fisher Scientific) was filter sterilised (0.22 μm Fisherbrand™ Sterile PES Syringe Filter, Fisher Scientific) before use. Sodium taurocholate was purchased from Merck.
λmax was determined for each compound from the UV-Vis absorption spectrum of a 200 LIM compound solution in buffer of interest using a Varian Cary® 100 UV-Vis Spectrophotometer. A calibration curve of λmax VS concentration was obtained by serial dilution of compound from 200 μM in the buffer of interest, correcting for background buffer absorption. For each sample, a DMSO solution of compound was incubated in buffer of interest (<5% DMSO) for 2 hrs at RT. The solution was filtered (0.22 μm Fisherbrand™ Sterile PES Syringe Filter, Fisher Scientific) or centrifuged (14,500 rpm, 10 min) to remove undissolved debris and the supernatant was removed and diluted as required. The corrected UV absorption of the supernatant at Amax Was measured using a Varian Cary® 100 UV-Vis Spectrophotometer and compared to the calibration curve to determine compound solubility.

[5] = test system: T. brucei bloodstream trypomastigotes; experiment: T. brucei bloodstream trypomastigote dose response assay; type: cell-based; details: Trypanosoma brucei, read-out: EC50 (T. brucei)/μM
L. major promastigotes = experiment: L. major promastigote dose response assay (alamarBlue/resazurin); type: cell-based; details: Leishmania major, 48 h, 44 hrs + 4 hrs alamarBlue/resazurin, 26° C.
Experimental: Using a standard alamarBlue™ assay, activity and selectivity were assessed using L. major promastigotes and HepG2 cells, respectively.
All parasite and human cell cultures were grown and manipulated following biosafety level 2 instructions under sterile conditions. L. major FV1, L. amazonensis (MHOM/Br/75/JOSEFA), L. donovani BOB (derived from MHOM/SD/62/1S-CL2D), T. brucei (90-13, 427 strain) and T. cruzi (Dm28c) were used throughout.
All steps were carried out under sterile conditions. Frozen stocks of the relevant Leishmania promastigote species were thawed rapidly and added to Schneider's media. Promastigotes were grown at 26° C. in Nunc EasYFlask 25 cm^2 Nunclon Delta Surface (ThermoScientific) and frozen stocks were prepared on low passage cultures (p2-4) by pelleting the cells by centrifugation and resuspending in Schneider's media with 10% DMSO. The cultures were aliquoted into cryovials (Starlab) and cooled slowly to −150° C. for long term storage.
All steps were carried out under sterile conditions. […] Cycloheximide or amphotericin B were used as positive controls and 2% DMSO was used as a negative control. alamarBlue® (ThermoFisher scientific) or resazurin solution was added to each well and incubated for a further 4 hrs at 26° C. Cell-viability was determined using a BioTek™ FLx800 microplate reader with Gen5® 1.08 data analysis software (BioTek) by monitoring fluorescence emission (λex 560/λem 590 nm). Dose response curves were fitted using sigmoidal regression analysis (GraphPad Prism 8 software) and used to calculate EC50 values.

[6] = test system: L. amazonensis promastigotes; experiment: L. amazonensis promastigote dose response assay (alamarBlue/resazurin); type: cell-based; details: Leishmania amazonensis, 48 h, 44 hrs + 4 hrs alamarBlue/resazurin, 26° C., read-out: EC50 (L. amaz)/μM
[7] = FASSGF, fassgf or other biorelevant

SMILES	parasitic load after intralesional treatment (L. amazonensis-GFP)	EC50 ([1]; 72 h) [µM]	inhibition of growth of ΔrfaC mutant E. coli (ΔrfaC mutant E. coli)	inhibition of growth of S. aureus (S. aureus (FDA209P))	inhibition of growth of wild-type E. coli [2]	EC50 (T. cruzi epimastigotes; 72 h) [µM]	CC50 at 48 h [3] [µg/mL]	EC50 [4] [µg/mL]	antileishmanial effect in vivo (liver, spleen, bone marrow infection) (visceral leishmaniasis; compound alone)	antileishmanial effect in vivo (liver, spleen, bone marrow infection), liposomal formulation (visceral leishmaniasis; delivered (iv) in a liposomal formulation)	solubility at 2 h (Kinetic solubility; [7]) [µM]	solubility at 2 h (Kinetic solubility; FASSIF) [µM]	solubility at 2 h (Kinetic solubility; FESSIF) [µM]	solubility at 2 h (Kinetic solubility; PBS, aqueous buffer) [µM]	EC50 ([5]; 48 h) [µM]	EC50 ([1]; promastigotes, 72 hrs at 26° C., resazurin) [µM]	EC50 (L. major promastigotes) [µM]	EC50 (T. cruzi epimastigotes; epimastigotes, 72 hours at 28° C., counted) [µM]	EC50 [6] [µM]	EC50 ([5]; bloodstream trypomastigotes, 48 hrs, CellTiter Blue) [µM]
CNC(=O)c1ccc(OCCCN2CCOCC2)cc1NC(=O)c1ccc([N+](=O)[O-])s1 [Compound 53, N-[2-(methylcarbamoyl)-5-[3″-(morpholin-4′″-yl)propoxy]phenyl]-5′-nitrothiophene-2′-carboxamide]	effective treatment	0.044	some reasonable activity	effective at inhibiting the bacteria at low concentrations	little effect	3.8 ± 0.5	16 ± 1 (≈ 35.7 µM)	0.6 ± 0.2 (≈ 1.34 µM)	reasonable antileishmanial effect	very effective clearance	> 8000	359 (≈ 161 µg/mL)	4700 (≈ 2110 µg/mL)	29 (≈ 13 µg/mL)	0.29 ± 0.1					
CNC(=O)c1ccc(OCCN2CCOCC2)cc1NC(=O)c1ccc([N+](=O)[O-])s1 [Compound 52, N-[2-(methylcarbamoyl)-5-[2″-(morpholin-4″-yl)ethoxy]phenyl]-5′-nitrothiophene-2′-carboxamide]											> 8000	148 (≈ 64.3 µg/mL)	1870 (≈ 812 µg/mL)	19.3 (≈ 8.39 µg/mL)		0.134	0.44	13 ± 1	0.27	0.78 ± 0.4
